In patent publication US11728018B2, “Subject-specific system and method for prevention of body adaptation for chronic treatment of disease” (OBERON SCIENCES ILAN LTD., priority 2017, dated 2023):
Values joined by “and” are separate entries in the source; they are usually repeats but may differ in a detail not shown here. Equal values may be shown once. Read-outs that look alike come from different tables or passages of the source.

Experiments:
C57Bl/6 mice given Con A [1] = assay type: in vivo
C57Bl/6 mice given Con A [2] = assay: Colchicine by gavage once six hours before ConA injection, serum ALT; assay type: in vivo; conditions: for ALT Average: N = 3
Method: Lack of an effect of low dose colchicine (0.5 mg, 3 times a day) as anti-inflammatory agent, while showing beneficial effect of low dose colchicine in diabetes and fatty liver disease. • Mice: C57Bl/6 mice, 11-12 weeks old • Duration: Mice will be administered once Colchicine six hours before ConA • Sacrifice: 14 hours after ConA injection.
Experiment Protocol: • Day 1: Administer all compounds by gavage 300 ul: saline or Colchicine • After 6 hours give Con A by injection IV 500 μg/mouse=20 mg/kg=[…] • Day 2: On the next day: sacrifice all mice • Take blood for serum ALT The results of this experiments are given in the table below and in FIG. 7.

mice on a High fat diet = assay: Low dose colchicine in high fat diet model of type 2 diabetes and fatty liver; assay type: in vivo; conditions: colchicine for two weeks, dose that had no anti-inflammatory effect
Method: • Give colchicine at the end of the experiment for two weeks to 4 mice who were on a High fat diet and developed diabetes and fatty liver disease. • Mice are treated with a dose that had no anti-inflammatory effect. • Test for glucose, ALT and cholesterol levels at the end of the two weeks.

[3] = system: PBMC from naïve GD patients; assay: PBMC from Gaucher patients incubated with ConA, IFNg ELISA; conditions: for IFNg ELISA, second value (Conc) / IFNg Conc: Colchicine 0.0625 pg/ml or dexamethasone 250 ug/well
[4] = in vivo; cited from earlier work
[5] = system: C57 Bl mice receiving CONA; assay: Daily low dose CONA in mice, regular vs irregular dexamethasone administration, serum ALT; assay type: in vivo; conditions: dexamethasone 50 mg/kg per day
Method: Mice: 24 C57 Bl mice, 12 weeks old, n=4/group
All animals received daily low dose CONA 300 μg/mouse daily for 10 days
Dexamethasone daily 50 mg/kg per day
ALT serum levels were monitored as follows

[6] = Patient 1, lymphocytes only 80.9
[7] = Patient 2, lymphocytes only 474.7

Nc1c(Br)cc(Br)cc1CN[C@H]1CC[C@H](O)CC1 [Ambroxol]
ALT (IU) (C57Bl/6 mice given Con A [1]; Ambroxol 1.4 mg PO, alone or with Colchicine 0.01 mg/kg, control 6068): 4243 IU | ALT Average (C57Bl/6 mice given Con A [1]; Ambroxol arm, N = 3, control 6068): 4243 | ALT (C57Bl/6 mice given Con A [1]; single mice, Ambroxol arm, dilution 1/40): 3683 and 4187 and 4859

COc1cc2c(c(OC)c1OC)-c1ccc(OC)c(=O)cc1[C@@H](NC(C)=O)CC2 [Colchicine]
ALT Average (C57Bl/6 mice given Con A [2]; Low dose, Colchicine 0.005 μg/kg by gavage): 3218 | ALT Average (C57Bl/6 mice given Con A [2]; Regular dose, Colchicine 0.05 μg/kg by gavage): 17134 | ALT (C57Bl/6 mice given Con A [2]; single mice, Regular dose, Colchicine 0.05 μg/kg by gavage, dilution 1/40): 18946 and 19427 and 13029 | Glucose (mg %) (mice on a High fat diet; control 190): 155 mg % | ALT (IU) (mice on a High fat diet; control 278): 103 IU | Cholesterol (mg %) (mice on a High fat diet; control 342): 100 mg % | IFNg ELISA, second value (Conc) ([3]; P1, lymphocytes only 80.9): 52.3 | IFNg ELISA, second value (Conc) ([3]; P2, lymphocytes only 474.7): 47.57 | IFNg Conc [3, 6]: 52.3 | IFNg Conc [3, 7]: 47.57 | effect on the inflammatory effect of PBMC from patients with Gaucher disease ([3]; summary in words): profound effect on suppressing the inflammatory effect of PBMC | part of dose excreted unchanged by the kidneys [4]: 10-20% | removal by hemodialysis [4]: not removed by hemodialysis | adjuvant effect on the efficacy of drugs (C57Bl/6 mice given Con A [1]; low dose colchicine, summary in words): can serve as a potent adjuvant to improve the efficacy of drugs

C[C@@H]1C[C@H]2[C@@H]3CCC4=CC(=O)C=C[C@]4(C)[C@@]3(F)[C@@H](O)C[C@]2(C)[C@@]1(O)C(=O)CO [Dexamethasone]
ALT serum level ([5]; Day 2, group B, regular 8AM every day): 644.25 | ALT serum level ([5]; Day 2, group C, irregular time of administration): 747 | ALT serum level ([5]; Day 5, group B, regular 8AM every day): 978.75 | ALT serum level ([5]; Day 5, group C, irregular time of administration): 842.5 | ALT serum level ([5]; Day 10, group B, regular 8AM every day): 1210.25 | ALT serum level ([5]; Day 10, group C, irregular time of administration): 876.75 | IFNg ELISA, second value (Conc) ([3]; P1, lymphocytes only 80.9): 33.29 | IFNg ELISA, second value (Conc) ([3]; P2, lymphocytes only 474.7): 23.29 | IFNg Conc [3, 6]: 33.29 | IFNg Conc [3, 7]: 23.29
